{"source": "paper PMC11275795", "about": "(bioRxiv, 2024)", "target": "FIGNL1∆N (Homo sapiens, UniProt Q6PIW4)", "sequence (Q6PIW4 287-674)": "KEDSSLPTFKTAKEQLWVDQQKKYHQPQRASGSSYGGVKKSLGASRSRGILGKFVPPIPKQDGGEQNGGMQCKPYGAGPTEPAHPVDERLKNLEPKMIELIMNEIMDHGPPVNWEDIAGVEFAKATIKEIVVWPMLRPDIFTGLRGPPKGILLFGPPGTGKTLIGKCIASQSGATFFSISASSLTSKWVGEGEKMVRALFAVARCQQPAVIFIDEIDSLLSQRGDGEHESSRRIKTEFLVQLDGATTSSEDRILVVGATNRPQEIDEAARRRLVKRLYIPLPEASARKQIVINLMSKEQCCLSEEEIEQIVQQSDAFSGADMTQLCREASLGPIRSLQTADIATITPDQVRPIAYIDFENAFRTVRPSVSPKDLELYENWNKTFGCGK", "settings": "activity enhanced by RAD51 or its N-terminal peptide", "data": [{"smiles": "Nc1ncnc2c1ncn2[C@@H]1O[C@H](COP(=O)(O)OP(=O)(O)OP(=O)(O)O)[C@@H](O)[C@H]1O", "note": "[ATP]", "values": [{"measurement": "ATPase assay", "result": "The ATPase activity of FIGNL1∆N is enhanced in the presence of RAD51"}]}]}
